In US11753397B2, “Cereblon binders for the degradation of ikaros” (C4 Therapeutics, Inc., priority 2018, dated 2023):

System: NCIH929.1 cells
Assay: Cell viability assay (CellTiter-Glo 2.0, ATP quantification)
Type: cell-based
Details: NCIH929.1 cell viability, CellTiter-Glo 2.0, 96 hr incubation, top concentration 1 μM
Protocol: Example 59. Cell Viability Assay
RPMI 1640 medium, fetal bovine serum (FBS) and 2-mercaptoethanol were purchased from Gibco (Grand Island, N.Y., USA). CellTiter-Glo® 2.0 Assay was purchased from Promega (Madison, Wis., USA). NCIH929.1 cell line was purchased from ATCC (Manassas, Va., USA). Cell culture flasks and 384-well microplates were acquired from VWR (Radnor, Pa., USA).
NCIH929.1 cell viability was determined based on quantification of ATP using CellTiter-Glo® 2.0 luminescent Assay kit, which signals the presence of metabolically-active cells. Briefly, the test compound was added to 384-well plates at a top concentration of 1 μM with 10 points, half log titration in duplicates. NCIH929.1 cells were seeded into the 384-well plates in RPMI medium containing 10% FBS and 0.05 mM 2-mercaptoethanol at a cell density of 750 cells per well. Cells treated in the absence of the test compound were the negative control and cells treated in the absence of CellTiter-Glo® 2.0 were the positive control. At the same day of compound treatment, CellTiter-Glo® 2.0 was added to a plate with cells treated in the absence of the test compound to establish Cytostatic control value (CT0). Cells treated with the test compound were incubated at 37° C. with 5% CO2 for 96 hr. CellTiter-Glo reagent was then added to the cells and luminescence was acquired on EnVision™ Multilabel Reader (PerkinElmer, Santa Clara, Calif., USA).

SMILES: O=C1CCC(N2C(=O)c3cccc(NCc4cnn(C5CCN(C(=O)CC6CCOCC6)CC5)c4)c3C2=O)C(=O)N1 (centres unmarked) [Compound 28, 2-(2,6-dioxopiperidin-3-yl)-4-(((1-(1-(2-(tetrahydro-2H-pyrazin-4-yl)acetyl)piperidin-4-yl)-1H-pyrazol-4-yl)methyl)amino)isoindoline-1,3-dione]
- GI50: < 100 nM

SMILES: CC1(C(=O)N2CCC(n3ncc(CNc4cccc5c4C(=O)N(C4CCC(=O)NC4=O)C5=O)c3Br)CC2)CCC1 (centres unmarked) [Compound 188, 4-(((5-Bromo-1-(1-(1-methylcyclobutane-1-carbonyl)piperidin-4-yl)-1H-pyrazol-4-yl)methyl)amino)-2-(2,6-dioxopiperidin-3-yl)isoindoline-1,3-dione]
- GI50: < 100 nM

SMILES: O=C1CCC(N2C(=O)c3cccc(NCc4cnn(C5CCN(C(=O)C6(Cc7ccccc7)CC6)CC5)c4)c3C2=O)C(=O)N1 (centres unmarked) [Compound 71, 4-(((1-(1-(1-benzylcyclopropane-1-carbonyl)piperidin-4-yl)-1H-pyrazol-4-yl)methyl)amino)-2-(2,6-dioxopiperidin-3-yl)isoindoline-1,3-dione]
- GI50: < 100 nM

SMILES: O=C1CCC(N2C(=O)c3cccc(NCc4cnn(C5CCN(C(=O)C(F)F)CC5)c4)c3C2=O)C(=O)N1 (centres unmarked) [Compound 10, 4-(((1-(1-(2,2-difluoroacetyl)piperidin-4-yl)-1H-pyrazol-4-yl)methyl)amino)-2-(2,6-dioxopiperidin-3-yl)isoindoline-1,3-dione]
- GI50: < 100 nM

SMILES: O=C1CCC(N2C(=O)c3cccc(NCc4cnn(C5CCN(C(=O)Cc6ccc(-c7ccc(F)cc7)cc6)CC5)c4)c3C2=O)C(=O)N1 (centres unmarked) [Compound 106, 2-(2,6-dioxopiperidin-3-yl)-4-(((1-(1-(2-(4′-fluoro-[1,1′-biphenyl]-4-yl)acetyl)piperidin-4-yl)-1H-pyrazol-4-yl)methyl)amino)isoindoline-1,3-dione]
- GI50: < 100 nM

SMILES: CC1CC1C(=O)N1CCC(n2cc(CNc3cccc4c3C(=O)N(C3CCC(=O)NC3=O)C4=O)cn2)CC1 (centres unmarked) [Compound 45, 2-(2,6-dioxopiperidin-3-yl)-4-(((1-(1-(2-methylcyclopropane-1-carbonyl)piperidin-4-yl)-1H-pyrazol-4-yl)methyl)amino)isondoline-1,3-dione]
- GI50: < 100 nM

SMILES: O=C1CCC(N2C(=O)c3cccc(NCc4cnn(C5CCN(C(=O)CC6CC6)CC5)c4)c3C2=O)C(=O)N1 (centres unmarked) [Compound 26, 4-(((1-(1-(2-cyclopropylacetyl)piperidin-4-yl)-1H-pyrazol-4-yl)methyl)amino)-2-(2,6-dioxopiperidin-3-yl)isoindoline-1,3-dione]
- GI50: < 100 nM

SMILES: O=C1CCC(N2C(=O)c3cccc(NCc4cnn(C5CCN(C(=O)C6(F)CCC6)CC5)c4)c3C2=O)C(=O)N1 (centres unmarked) [Compound 79, 2-(2,6-dioxopiperidin-3-yl)-4-(((1-(1-(1-fluorocyclobutane-1-carbonyl)piperidin-4-yl)-1H-pyrazol-4-yl)methyl)amino)isoindoline-1,3-dione]
- GI50: < 100 nM

SMILES: O=C1CCC(N2C(=O)c3cccc(NCc4cnn(C5CCN(C(=O)C67CCC(C6)C7)CC5)c4)c3C2=O)C(=O)N1 (centres unmarked) [Compound 97, 4-(((1-(1-(bicyclo[2.1.1]hexane-1-carbonyl)piperidin-4-yl)-1H-pyrazol-4-yl)methyl)amino)-2-(2,6-dioxopiperidin-3-yl)isoindoline-1,3-dione]
- GI50: < 100 nM

SMILES: CC(C)C(=O)N1CCC(n2cc(CNc3cccc4c3C(=O)N(C3CCC(=O)NC3=O)C4=O)cn2)CC1 (centres unmarked) [Compound 9, 2-(2,6-dioxopiperidin-3-yl)-4-(((1-(1-isobutyrylpiperidin-4-yl)-1H-pyrazol-4-yl)methyl)amino)isoindoline-1,3-dione]
- GI50: < 100 nM

SMILES: Cn1cc(CNc2cccc3c2C(=O)N(C2CCC(=O)NC2=O)C3=O)cn1 (centres unmarked) [Compound 141, 2-(2,6-dioxopiperidin-3-yl)-4-(((1-methyl-1H-pyrazol-4-yl)methyl)amino)isoindoline-1,3-dione]
- GI50: < 100 nM

SMILES: CC1(C(=O)N2CCC(n3ncc4c3CCC4Nc3cccc4c3C(=O)N(C3CCC(=O)NC3=O)C4=O)CC2)CCC1 (centres unmarked) [Compound 207, 2-(2,6-Dioxo-piperidin-3-yl)-4-{1-[1-(1-methyl-cyclobutanecarbonyl)-piperidin-4-yl]-1,4,5,6-tetrahydro-cyclopentapyrazol-4-ylamino}-isoindole-1,3-dione]
- GI50: < 100 nM

SMILES: CC(C)(C)OC(=O)N1CCC(n2cc(CNc3cccc4c3C(=O)N(C3CCC(=O)NC3=O)C4=O)cn2)CC1 (centres unmarked) [Compound 66, tert-butyl 4-(4-(((2-(2,6-dioxopiperidin-3-yl)-1,3-dioxoisoindolin-4-yl)amino)methyl)-1H-pyrazol-1-yl)piperidine-1-carboxylate]
- GI50: < 100 nM

SMILES: COCC(=O)N1CCC(C(=O)N2CCC(n3cc(CNc4cccc5c4C(=O)N(C4CCC(=O)NC4=O)C5=O)cn3)CC2)CC1 (centres unmarked) [Compound 111, 2-(2,6-dioxopiperidin-3-yl)-4-(((1-(1-(1-(2-methoxyacetyl)piperidine-4-carbonyl)piperidin-4-yl)-1H-pyrazol-4-yl)methyl)amino)isoindoline-1,3-dione]
- GI50: < 100 nM

SMILES: CC(C)(C)OC(=O)N1CCC(C(=O)N2CCC(n3cc(CNc4cccc5c4C(=O)N(C4CCC(=O)NC4=O)C5=O)cn3)CC2)CC1 (centres unmarked) [Compound 121, tert-butyl 4-(4-(4-(((2-(2,6-dioxopiperidin-3-yl)-1,3-dioxoisoindolin-4-yl)amino)methyl)-1H-pyrazol-1-yl)piperidine-1-carbonyl)piperidine-1-carboxylate]
- GI50: < 100 nM

SMILES: CC1(C(=O)N2CCC(n3cc(CNc4cccc5c4C(=O)N(C4CCC(=O)NC4=O)C5=O)c(N)n3)CC2)CCC1 (centres unmarked) [Compound 179, 4-(((3-Amino-1-(1-(1-methylcyclobutane-1-carbonyl)piperidin-4-yl)-1H-pyrazol-4-yl)methyl)amino)-2-(2,6-dioxopiperidin-3-yl)isoindoline-1,3-dione]
- GI50: < 100 nM

SMILES: O=C1CCC(N2C(=O)c3cccc(NCc4cnn(C5CCN(C(=O)Cc6cnn(-c7ccccc7)c6)CC5)c4)c3C2=O)C(=O)N1 (centres unmarked) [Compound 120, 2-(2,6-dioxopiperidin-3-yl)-4-(((1-(1-(2-(1-phenyl-1H-pyrazol-4-yl)acetyl)piperidin-4-yl)-1H-pyrazol-4-yl)methyl)amino)isoindoline-1,3-dione]
- GI50: < 100 nM

SMILES: CC1(CN2CCC(n3cc(CNc4cccc5c4C(=O)N(C4CCC(=O)NC4=O)C5=O)cn3)CC2)CCCCC1 (centres unmarked) [Compound 132, 2-(2,6-dioxopiperidin-3-yl)-4-(((1-(1-((1-methylcyclohexyl)methyl)piperidin-4-yl)-1H-pyrazol-4-yl)methyl)amino)isoindoline-1,3-dione]
- GI50: < 100 nM

SMILES: O=C1CCC(N2C(=O)c3cccc(NCc4cnn(C5CCN(C(=O)C6(c7ccc(F)cc7)CCC6)CC5)c4)c3C2=O)C(=O)N1 (centres unmarked) [Compound 70, 2-(2,6-dioxopiperiidn-3-yl)-4-(((1-(1-(1-(4-fluorophenyl)cyclobutane-1-carbonyl)piperidin-4-yl)-1H-pyrazol-4-yl)methyl)amino)isoindoline-1,3-dione]
- GI50: < 1 nM

SMILES: O=C1CCC(N2C(=O)c3cccc(NCc4cnn(C5CCN(C(=O)C6CCN(C(=O)Cc7ccccc7)CC6)CC5)c4)c3C2=O)C(=O)N1 (centres unmarked) [Compound 113, 2-(2,6-dioxopiperidin-3-yl)-4-(((1-(1-(1-(2-phenylacetyl)piperidine-4-carbonyl)piperidin-4-yl)-1H-pyrazol-4-yl)methyl)amino)isoindoline-1,3-dione]
- GI50: < 100 nM
